Assay results from patent US5985937A, “Use of 2,4-distributed phenol derivatives as 5-lipoxygenase inhibitors” (priority 1994, dated 1999).
“Also recorded” adds a separate entry of the source.

Columns and labels:
5-lipoxygenase (5-LO) = target: T1, 5-lipoxygenase (5-LO) (Homo sapiens, UniProt P09917); assay: 5-LO inhibiting activity in human polymorphonuclear leukocytes ([14C]-arachidonic acid, A23187; HPLC of eicosanoids); assay type: cell-based
T1 construct: endogenous in cells; host or cells: human polymorphonuclear leukocytes from donor blood
T1 sequence (P09917 1-674): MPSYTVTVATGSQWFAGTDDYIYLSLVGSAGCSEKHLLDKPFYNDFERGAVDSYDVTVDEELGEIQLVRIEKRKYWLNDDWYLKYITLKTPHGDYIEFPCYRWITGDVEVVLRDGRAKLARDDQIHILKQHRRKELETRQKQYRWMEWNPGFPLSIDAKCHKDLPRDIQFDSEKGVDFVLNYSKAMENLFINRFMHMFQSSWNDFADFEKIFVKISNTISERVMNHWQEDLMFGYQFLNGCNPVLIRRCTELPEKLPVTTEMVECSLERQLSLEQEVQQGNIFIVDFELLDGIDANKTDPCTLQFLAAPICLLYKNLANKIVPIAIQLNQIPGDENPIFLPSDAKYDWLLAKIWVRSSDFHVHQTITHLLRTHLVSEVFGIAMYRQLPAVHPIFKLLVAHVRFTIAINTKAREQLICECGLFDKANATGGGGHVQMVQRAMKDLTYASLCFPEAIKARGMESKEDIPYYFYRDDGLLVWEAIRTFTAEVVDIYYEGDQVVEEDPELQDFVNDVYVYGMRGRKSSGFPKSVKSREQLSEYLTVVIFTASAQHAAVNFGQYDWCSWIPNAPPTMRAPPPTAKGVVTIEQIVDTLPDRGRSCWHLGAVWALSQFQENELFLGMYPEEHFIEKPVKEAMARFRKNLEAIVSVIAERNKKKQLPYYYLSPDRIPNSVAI
Method: In order to show the 5-LO inhibiting activity of the products of the present invention, a specific test based on human polymorphonuclear leukocytes is chosen.
5-LO Inhibiting Activity in Polymorphonuclear Leukocytes
Blood was obtained from donors which had not received medication during the ten days previous to the extraction. The blood was treated with an anticoagulant (ACD-A) and was centrifuged at 200 g during 12 min at room temperature, separating the supernatant. A solution of Dextran T-500 in physiological serum was added to the pellet, in order to obtain a final concentration of 0.6% w/v, and was allowed to sediment during 40 min. The supernatant was centrifuged at 180 g during 10 min at room temperature. The pellet was resuspended in 5 ml of Hank's buffer, pH 7.4. After the addition of 3 ml of Lymphoprep, the suspension was centrifuged at 450 g during 30 min, and the layers of supernatant were discarded. The next step was the lysis of the erythrocytes present by adding 2 ml of a saline solution. The resulting volume was adjusted to 10 ml with Hank's buffer, pH 7.4. The solution was centrifuged during 10 min at 180 g; the supernatant was discarded and the resulting pellet was resuspended in 1-2 ml of Hank's buffer, pH 7.4. The cellular density was determined using a haemocytometer using the procedure of microcollection Unopette to determine the levels of platelet contamination. Cellular density was adjusted to 2×10^7 cells/ml with Hank's buffer, pH 7.4 and CaCl2 was added to a final concentration of 1.5 mM.
Aliquots (0.5 ml) of the polymorphonuclear leukocytes suspensions, obtained as described in part (a), were incubated during 5 min at 37° C. in the absence (control) and in the presence of three different concentrations of each drug. Afterwards an ethanol solution of [^14 C]-arachidonic acid and A23187 ionophore was added to obtain a final concentration of 10 and 5 μM, respectively. After 5 min of incubation the reaction was stopped by addition of 0.5 ml of ice-cold ethanol. Samples were centrifuged during 2 min at 1500 g, and the supernatants were kept at -80° C. until analyzed. Controls were carried out using the polymorphonuclear leukocyte suspensions aliquots in the presence of the solvent (DMSO) only.
The analysis of the products from the transformation of arachidonic acid through the action of the lipoxygenase (these products being the eicosanoids) was carried out using high pressure liquid chromatography (HPLC), in a reverse phase column (Ultrasphere-ODS, Beckman), injecting 500 μl of the supernatants obtained from the incubations. Elution was carried out using an isocratic mix of mathanol:water:triethylamine:trifluoroacetic acid, 75:25:0.05:0.10, with a flux of 1 ml/min. Detection was carried out with a radioactivity detector with a liquid scintillation cell on-line coupled with the column.

[1] = acute toxicity in Sprague-Dawley rats; details: rat, in vivo, po
dogs = assay: acute toxicity in dogs; assay type: in vivo, dog; details: after 28 days at doses of 200, 300, 400, 1000 and 2000 mg/kg
rats = assay: chronic toxicity in rats; assay type: in vivo, rat; details: 350 mg/kg.day, 6 months; hematological, biochemical, anatomy-pathological
bacterial strains = assay: mutagenic activity in four bacterial strains; design: species or system bacteria
tendonitis = assay: treatment of horses with tendonitis; assay type: in vivo, horse; details: 15 mg/day intraarticular infiltration
Method: Twenty five horses suffering from tendonitis, with claudication of the corresponding tendon, were treated with 15 mg/day via intraarticular infiltration of Bobel-24.

feline asthma = assay: treatment of cats with feline asthma; assay type: in vivo, cat; details: 5 mg/day, cream applied to the leg and licked
seborrheic dermatitis = assay: treatment of dogs with seborrheic dermatitis; assay type: in vivo, dog; details: 15 dogs (Cockers), phase I or II, 1 mg/kg.day p.o. plus 2% shampoo
Method: A total of 15 dogs (Cockers) suffering from seborrheic dermatitis in phase I or II were treated with doses of 1 mg/kg.day p.o. of Bobel-24, and were simultaneously washed with a shampoo containing 2% of the same product.

canine arthrosis = assay: clinical trial on canine arthrosis; assay type: in vivo, dog; design: key: +++: very good response, total recovery; ++: good response, functionability recovery; +: moderate response, improvement; -: negative response or no apparent improvement; details: 4 mg/kg day orally, 45 days
Method: After the diagnosis, each animal was treated with Bobel capsules during 45 days, with a follow up every 15 days. Blood, synovial liquid and urine samples were taken at the beginning and at the end of the treatment in order to perform the following tests: Synovial liquid analysis (cytology, cytokines 1,6,8 and TNF); LTB4; LTC4; PGE2; hematic count and leukocyte content; standard serum biochemistry; urine sediment; Rose-Wealer test; and radiology control. The methodology for clinical validation involved applying evaluating uniform parameters and classifying the results according to the following notations: (+++)=very good response, total recovery; (++)=good response, functionability recovery; (+)=moderate response, improvement; (-)=negative response or no apparent improvement.

SMILES: Oc1c(I)cc(I)cc1I [Bobel-24, 2,4,6-triiodophenol]
- IC50 (5-lipoxygenase (5-LO)): 10 µM
- products derived from 5-LO biosynthesis (chromatogram) (5-lipoxygenase (5-LO); 25 μM, arachidonic acid 10 μM, FIG. 2): practically complete disappearance of the products derived from 5-LO biosynthesis
- 15-HETE and 12-HETE formation (5-lipoxygenase (5-LO); 25 μM, arachidonic acid 10 μM, due to contaminating platelets): increment in 15-HETE and 12-HETE
- concentration of biosynthesis products versus concentration of the drug (5-lipoxygenase (5-LO); LTB4, 6-trans-LTB4, 5-HETE, 20-OH-LTB4, FIGS. 3 and 4): decreased in approximately linear with the concentration of the drug used
- concentration required for a given inhibition relative to benoxaprofen or ketaconozale (5-lipoxygenase (5-LO); ratio from IC50): approximately one tenth; also recorded: ten times smaller
- inhibition at 25 µM (5-lipoxygenase (5-LO); read-out: 5-LO inhibitory activity, approximate inhibition percentage): 100%
- gradient of decrease of 5-LO products with concentration, compared with the other two drugs (5-lipoxygenase (5-LO); versus benoxaprofen and ketoconazole, FIGS. 3 and 4): gradients were greater
- LD50 [1]: 1500 mg/kg
- acute toxicity in dogs (dogs): not observed
- chronic toxicity in rats (rats): not observed
- mutagenic activity (bacterial strains): No mutagenic activity
- outcome in the rest of the cases (tendonitis; horses, 15 days): the claudication disappeared within the same period of time, but an inflammatory ring persisted around the tendon
- cases in which the process was totally reduced in 15 days (tendonitis; of twenty five horses): 17 cases
- results in feline asthma (feline asthma): satisfactory results in many cases
- disappearance of the dermatitis (seborrheic dermatitis): practically a total disappearance of the dermatitis
- Evolution, spondolytis (canine arthrosis; Doge 3 years): +++
- Evolution, broken muscle (canine arthrosis; German shepherd 2 years): +
- Evolution, generalized arthrosis (canine arthrosis; German shepherd 10 years): ++
- Evolution, rotular arthrosis (canine arthrosis; Mongrel 14 years): ++
- Evolution, degenerative arthrosis (canine arthrosis; Poodle 11 years): +++
- Evolution, broken crossed ligament (canine arthrosis; Poodle 15 years): +
- Evolution, equine cauda (canine arthrosis; b309 Mastif 11 years, b317 Mongrel 13 years): +++
- Evolution, arthrosis (canine arthrosis; b312 Rottwailer 1 year, b322 German shepherd 9 years): +++
